This note sets out measurements from the supplement of paper PMC11208160.

The nature of this series: recombinant UMI read abundance after kanamycin selection (control-corrected) (log10(CPM+1)); higher = more efficient recombination; extreme values may be limits of the assay; sequences stand for … in AGTGCAGAGAAAATCGGCCAGTTTTCTCTGCCTGCAGTCCGCATGCCGTGGGACCCCTTGGGTTCTAACCTGTTGCCTAGATTTATGCAGCGGACTGCCTTTCTCCCAAAGTGATAAACCGG…AGGTTGGTTTCACT; site = the 11-nt donor. The method, boiled down:
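Pooled Escherichia coli screen of donor and donor-binding-loop pairs for the IS621 bridge recombinase. Each pair sits with a 12-nt UMI on a plasmid carrying a promoterless kanamycin gene. The library was co-electroporated with a target plasmid encoding a fixed target and T7-inducible recombinase, then plated with IPTG (0.07 mM) plus kanamycin, or unselected, each in two replicates. Recombinant UMIs were PCR-amplified across the donor–target junction and sequenced. Counts became CPM, averaged over replicates, scaled by control-derived factors and reported as log10(CPM+1).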
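Note: IS621 bridge recombinase in Escherichia coli cells against a fixed T5 target plasmid.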

In the case of “AGGAAAACATGGACCGGTTTTCCCGGTAATCCGTATTTGCA (site AGGAATACTTG)”, the “recombinant UMI read abundance (log10)” value worked out at 0.

Take “AGGAAAACATGGACCGGTTTTCCCGGTAATCCGTATTTGTA (site AGGAAAACTTA)”: the “recombinant UMI read abundance (log10)” value was found to be 1.92.

Take “AGGAAAACATGGACCGGTTTTCCCGGTAATCCGTATTTGTA (site AGGAAGACTTG)”: the “recombinant UMI read abundance (log10)” value turned out to be 0.

On to “AGGAACACATGGACCGGTTTTCCCGGTAATCCGTATTTGCA (site AGGAAAACTTG)”, for which the “recombinant UMI read abundance (log10)” value stood at 0.

Consider “AGGAACACATGGACCGGTTTTCCCGGTAATCCGTATTTGCA (site AGGAACACTTG)”, for which the “recombinant UMI read abundance (log10)” value was 2.52.

Consider “AGGAACACATGGACCGGTTTTCCCGGTAATCCGTATTTGCA (site AGGAAGACTTG)”, for which the “recombinant UMI read abundance (log10)” value was found to be 0.

With “AGGAACACATGGACCGGTTTTCCCGGTAATCCGTATTTGCA (site AGGAATACTTG)”, the “recombinant UMI read abundance (log10)” value worked out at 0.211.

On to “AGGAAGGCATGGACCGGTTTTCCCGGTAATCCGTATTTGCT (site AGAAAGGCTAG)”, for which the “recombinant UMI read abundance (log10)” value turned out to be 2.69.

Take “AGGAAGGCATGGACCGGTTTTCCCGGTAATCCGTATTTGCT (site AGCAAGGCTAG)”: the “recombinant UMI read abundance (log10)” value stood at 0.362.

As to “AGGAAGGCATGGACCGGTTTTCCCGGTAATCCGTATTTGCT (site AGGAAGACTTG)”, the “recombinant UMI read abundance (log10)” value was found to be 0.296.

As to “AGGAAGGCATGGACCGGTTTTCCCGGTAATCCGTATTTGCT (site AGGAAGGCTAG)”, the “recombinant UMI read abundance (log10)” value is 2.27.

As for “AGGAAGGCATGGACCGGTTTTCCCGGTAATCCGTATTTGCT (site AGTAAGGCTAG)”, the “recombinant UMI read abundance (log10)” value came out at 1.3.

As for “AGGAAGGCATGGACCGGTTTTCCCGGTAATCCGTATTTGGA (site AGGAAGACTTG)”, the “recombinant UMI read abundance (log10)” value was 0.224.

With “AGGAAGGCATGGACCGGTTTTCCCGGTAATCCGTATTTGGA (site AGGAAGGCTTC)”, the “recombinant UMI read abundance (log10)” value was found to be 1.73.

For the sequence “AGGAAGTCATGGACCGGTTTTCCCGGTAATCCGTATTTGCA (site AGGAAGACTTG)”, the “recombinant UMI read abundance (log10)” value stood at 0.839.

On to “AGGAAGTCATGGACCGGTTTTCCCGGTAATCCGTATTTGCA (site AGGAAGCCTTG)”, for which the “recombinant UMI read abundance (log10)” value was found to be 0.641.

For “AGGAAGTCATGGACCGGTTTTCCCGGTAATCCGTATTTGCA (site AGGAAGGCTTG)”, the “recombinant UMI read abundance (log10)” value is 0.

As for “AGGAAGTCATGGACCGGTTTTCCCGGTAATCCGTATTTGCA (site AGGAAGTCTTG)”, the “recombinant UMI read abundance (log10)” value stood at 3.29.

On to “AGGAAGTCATGGACCGGTTTTCCCGGTAATCCGTATTTGTC (site AGGAAGTCTGA)”, for which the “recombinant UMI read abundance (log10)” value stood at 3.14.

Regarding “AGGAATTCATGGACCGGTTTTCCCGGTAATCCGTATTTGTT (site AGGAATTCTAA)”, the “recombinant UMI read abundance (log10)” value was 2.16.

Turning to “AGGAATTCATGGACCGGTTTTCCCGGTAATCCGTATTTGTT (site CGGAATCCTAA)”, the “recombinant UMI read abundance (log10)” value stood at 0.

As to “AGGACGACATGGACCGGTTTTCCCGGTAATCCGTATTTGCA (site AGGAAGACTTG)”, the “recombinant UMI read abundance (log10)” value is 0.601.

In the case of “AGGACGACATGGACCGGTTTTCCCGGTAATCCGTATTTGCA (site AGGACGACTTG)”, the “recombinant UMI read abundance (log10)” value turned out to be 2.51.

Regarding “AGGACGACATGGACCGGTTTTCCCGGTAATCCGTATTTGCA (site AGGAGGACTTG)”, the “recombinant UMI read abundance (log10)” value was 1.38.

Consider “AGGACGACATGGACCGGTTTTCCCGGTAATCCGTATTTGCA (site AGGATGACTTG)”, for which the “recombinant UMI read abundance (log10)” value is 0.853.

“AGGACGACATGGACCGGTTTTCCCGGTAATCCGTATTTGGA (site AGGAAGACTTG)”: the “recombinant UMI read abundance (log10)” value came out at 0.

In the case of “AGGACGACATGGACCGGTTTTCCCGGTAATCCGTATTTGGA (site AGGACGACTTC)”, the “recombinant UMI read abundance (log10)” value was 0.813.

For “AGGACTACATGGACCGGTTTTCCCGGTAATCCGTATTTGGC (site AGGACTACTGA)”, the “recombinant UMI read abundance (log10)” value amounted to 0.

Take “AGGACTACATGGACCGGTTTTCCCGGTAATCCGTATTTGGC (site AGGACTACTGC)”: the “recombinant UMI read abundance (log10)” value is 2.95.
